Reference: US11390621B2, “Chiral indole compounds and their use” (ARIAGEN, INC., priority 2019, dated 2022)
“And” between values parts separate entries of the source, which are not always exact repeats. Equal entries are not always repeated. Where two headings read alike, the source gives them in different places.

What was measured:
[1] = Hepatocyte intrinsic clearance assay (metabolic stability), rat hepatocytes; type: in vitro ADME; settings: rat, cryopreserved hepatocytes, Rat Hepatocytes, 1 μM test compound
Outline: (§1)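 Cryopreserved pooled hepatocytes (1×10^6 cells/mL final) incubated with 1 μM compound at 37 °C, 5% CO2; samples at 0–120 min quenched in acetonitrile, analysed by LC-MS in duplicate. t1/2 and CLint from ln(% remaining) vs time slope; CLH via well-stirred liver model (fu=1) and EH derived from it.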

[2] = tested on: rat hepatocytes; test: as above; type: in vitro ADME; settings: for EH (hepatic extraction ratio): well stirred liver model, fu=1
Outline: as §1

[3] = Hepatocyte intrinsic clearance assay (metabolic stability), human hepatocytes; type: in vitro ADME; settings: male, human, cryopreserved pooled hepatocytes, Human Hepatocytes, 1 μM test compound
Outline: as §1

[4] = tested on: human hepatocytes; test: as above; type: in vitro ADME; settings: for EH (hepatic extraction ratio): well stirred liver model, fu=1
Outline: as §1

[5] = In vivo pharmacokinetic studies in rats; design: species or system SD rats; settings: rats; for AUC: SD; for AUC(0-t): read-out: AUClast; for Tmax at 1 day: read-out: Tmax
Procedure: This example describes pharmacokinetic (PK) studies of ARI-164, ARI-165, ARI-186, ARI-224, and ARI-226 in mice and rats. In the present studies, the test compounds were given to groups of mice and/or rats (N=3 in each group), intravenously (IV) at 2 mg/kg or orally (PO) at 10, 30, or 40 mg/kg. ARI-186, ARI-224 and ARI-226 were given orally to rats QD for 5 days at 10 mg/kg to assess whether decreased susceptibility to CYP1A1/1A2 metabolism would lead to increased accumulation. IV doses were formulated in DMSO, while PO doses were formulated in a 50/50 mixture of PEG400 and Tween 80 (single dose mouse and rat studies for ARI-164, ARI-165, ARI-186, ARI-224, ARI-226) or PEG400/Kolliphor HS15/Oleic Acid 45/45/10 (ARI-164 repeat dose rat study). Blood samples were collected at pre-dose and over a period of 24 hours post-dose. Plasma concentrations of the test compounds were determined by HPLC.

[6] = Sprague-Dawley (SD), rat, plasma, po, 10 mg/kg, repeat 10 mg/kg PO QD, Day 1, Mean of 3 animals
[7] = Sprague-Dawley, rat, plasma, po, 10 mg/kg, repeat 10 mg/kg PO QD, Day 1, individual animal
[8] = Sprague-Dawley, rat, plasma, po, 10 mg/kg, repeat 10 mg/kg PO QD, Day 5, Mean
[9] = Sprague-Dawley, rat, plasma, po, 10 mg/kg, repeat 10 mg/kg PO QD, Day 5, individual animal
[10] = repeat 10 mg/kg PO QD, Day 1, individual animal
[11] = repeat 10 mg/kg PO QD, Day 5, individual animal

O=C(c1nc(C2(O)CC2)cs1)c1c[nH]c2cc(F)ccc12 [ARI-221, (6-fluoro-1H-indol-3-yl)(4-(1-hydroxycyclopropyl)thiazol-2-yl)methanone]
half-life at 1 μM [1]: 2.1 h
hepatocyte CLint at 1 μM [1]: 5.55 µL/min/1e6 cells
EH (hepatic extraction ratio) ([2]; Rat Hepatocytes): 27.1%
half-life at 1 μM [3]: 0.5 h
hepatocyte CLint at 1 μM [3]: 25.3 µL/min/1e6 cells
EH (hepatic extraction ratio) ([4]; Human Hepatocytes): 27.3%

CC[C@H](N)c1csc(C(=O)c2c[nH]c3cc(F)ccc23)n1 [ARI-186, (S)-(4-(1-aminopropyl)thiazol-2-yl)(6-fluoro-1H-indol-3-yl)methanone]
half-life at 1 μM [1]: 2.8 h
hepatocyte CLint at 1 μM [1]: 4.1 µL/min/1e6 cells
CLint ([2]; Rat Hepatocytes, 1 μM test compound): 4.127 μL/min/10^6 cells
EH (hepatic extraction ratio) ([2]; Rat Hepatocytes): 21.6%
CLint lower than that of ARI-164 (fold) ([2]; rat hepatocytes): 1.8 ×
half-life at 1 μM [3]: 7.9 h
hepatocyte CLint at 1 μM [3]: 1.5 µL/min/1e6 cells
CLint ([4]; Human Hepatocytes, 1 μM test compound): 1.453 μL/min/10^6 cells
EH (hepatic extraction ratio) ([4]; Human Hepatocytes): 8.7%
CLint lower than that of ARI-164 (fold improvement) ([4]; human hepatocytes): 10.8 ×
AUC ([5]; rat, plasma, po, 10 mg/kg, repeat oral dosing 10 mg/kg QD, read-out: AUC on day 1): 5940 ng·h/mL
AUC ([5]; rat, plasma, po, 10 mg/kg, repeat oral dosing 10 mg/kg QD, read-out: AUC on day 5): 29100 ng·h/mL
AUC(0-inf) [5, 6]: 6480 ng·h/mL
Cmax at 1 day [5, 6]: 399 ng/mL
MRT inf at 1 day [5, 6]: 10.1 h
MRT last at 1 day [5, 6]: 8.06 h
half-life at 1 day [5, 6]: 6.04 h
AUC(0-t) [5, 6]: 5940 ng·h/mL
Tmax at 1 day [5, 6]: 6.67 h
AUC(0-t) ([5]; Sprague-Dawley (SD), rat, plasma, po, 10 mg/kg, repeat 10 mg/kg PO QD, Day 5, individual animal): 33600 ng·h/mL
AUC(0-inf) [5, 7]: 6920 ng·h/mL
Cmax at 1 day [5, 7]: 397 ng/mL
MRT inf at 1 day [5, 7]: 10.5 h
MRT last at 1 day [5, 7]: 8.14 h
half-life at 1 day [5, 7]: 6.44 h
AUC(0-t) [5, 7]: 6260 ng·h/mL
Tmax at 1 day [5, 7]: 8 h
Cmax at 5 day [5, 8]: 1580 ng/mL
MRT last at 5 day [5, 8]: 11.5 h
Tmax at 5 day [5, 8]: 4.67 h
AUC(0-t) [5, 8]: 29100 ng·h/mL
Cmax at 5 day [5, 9]: 1610 ng/mL
MRT last at 5 day [5, 9]: 11.6 h
behaviour of exposure after 5 days of repeat dosing (in words) ([5]; 10 mg/kg PO QD for 5 days): accumulation towards steady state
AUCinf [5, 10]: 6000 ng·h/mL and 6510 ng·h/mL
AUClast [5, 10]: 5400 ng·h/mL and 6150 ng·h/mL
Cmax [5, 10]: 359 ng/mL and 441 ng/mL
MRTinf [5, 10]: 10.9 h and 8.93 h
MRTlast [5, 10]: 8.40 h and 7.63 h
T1/2 [5, 10]: 6.45 h and 5.22 h
Tmax [5, 10]: 4 h
AUClast [5, 11]: 24600 ng·h/mL
Cmax [5, 11]: 1310 ng/mL and 1810 ng/mL
MRTlast [5, 11]: 11.4 h
Tmax [5, 11]: 4 h
accumulation (AUC day 5 vs day 1) ([5]; repeat oral dosing 10 mg/kg QD): 4.9 ×

O=C(c1nc([C@H](O)C(F)(F)F)cs1)c1c[nH]c2cc(F)ccc12 [ARI-212]
half-life at 1 μM [1]: 3 h
hepatocyte CLint at 1 μM [1]: 3.85 µL/min/1e6 cells
EH (hepatic extraction ratio) ([2]; Rat Hepatocytes): 20.5%
half-life at 1 μM [3]: 0.3 h
hepatocyte CLint at 1 μM [3]: 44.1 µL/min/1e6 cells
EH (hepatic extraction ratio) ([4]; Human Hepatocytes): 28.9%

CC(C)(O)c1csc(C(=O)c2c[nH]c3cc(F)ccc23)n1 [ARI-220, (6-fluoro-1H-indol-3-yl)(4-(2-hydroxypropan-2-yl)thiazol-2-yl)methanone]
half-life at 1 μM [1]: 2.4 h
hepatocyte CLint at 1 μM [1]: 4.77 µL/min/1e6 cells
EH (hepatic extraction ratio) ([2]; Rat Hepatocytes): 24.2%
half-life at 1 μM [3]: 1.4 h
hepatocyte CLint at 1 μM [3]: 8.33 µL/min/1e6 cells
EH (hepatic extraction ratio) ([4]; Human Hepatocytes): 21.6%
